# According to patent US20230255877A1, “COMPOSITION FOR IMPROVING SKIN COMPRISING STEAMED CITRUS PEEL EXTRACT AS ACTIVE INGREDIENT” (LG HOUSEHOLD & HEALTH CARE LTD., priority 2022, published 2023):
# Legend:
# [1] = system: Raw264.7 cells; experiment: NO production inhibition in lipopolysaccharide-treated Raw264.7 cells (GRIESS reagent); format: cell-based
# Description: In order to confirm the anti-inflammatory effect of the citrus peel extracts, NO production inhibition rate was measured after the extracts were untreated, steamed for 30 minutes, or steamed for 8 hours. In order to culture Raw264.7 cells, a mixture of DMEM (Dulbecco's Modified Eagle's Medium) and FBS (Fetal Bovine Serum) was used as a basic medium, and the Raw264.7 cells were seeded into a 24-well plate at a concentration of 1 to 2×10^5 cells/mL and cultured for 24 hours. The medium was removed and the cells were starvated in serum-free medium for 12 hours, and thereafter, the DMSO lysate of each extract was treated so that the concentration was 200 ppm, and after 30 minutes, lipopolysaccharide was added at a concentration of 500 ng/ml and cultured for 18 hours. L-NMMA, a positive control, was treated at 20 ppm. After completion of the culture, the supernatant was taken and transferred to a 96-well plate, reacted at room temperature by adding the GRIESS reagent, and the absorbance at 540 nm was measured using an ELISA reader. The amount of NO inhibited compared to the control group was calculated as NO production inhibition rate (%), and the average value was calculated after the experiment was performed three times.
# In order to identify the cause of the change in anti-inflammatory efficacy among the steamed citrus peel extract components, the NO production inhibition rates of hesperidin, a flavonoid glycone, and hesperetin, a a flavonoid aglycone, were compared (Table 13)
# [2] = system: human dermal fibroblasts; experiment: Collagen synthesis promotion in human dermal fibroblasts (procollagen 1α1 ELISA); format: cell-based
# Description: In order to confirm the collagen synthesis promoting effect of the citrus peel extracts, the amount of additional collagen production was measured after the extracts were untreated, steamed for 30 minutes, or steamed for 8 hours. In order to culture human dermal fibroblasts, a mixture of DMEM and FBS was used as a basic medium, and the skin fibroblasts were seeded into a 48-well plate at a concentration of 2 to 5×10^4 cells/mL and cultured for 24 hours. The medium was removed, and the DMSO lysate of each extract was treated in serum-free medium so that the concentration was 100 ppm, and cultured for 24 hours. A positive control that promotes collagen synthesis was treated with TGF-β to a concentration of 5 ppb. The cell culture solution was taken and the synthesized collagen was measured using the Human procollagen 1α1 duoset ELISA Kit (R&D Systems) and ELISA reader. A calibration curve was prepared by measuring the isolated and purified collagen at concentrations of 0.25, 0.5, 1, 2, 4, and 8 ng/mL, and based on the results, the amount of collagen (Type I collagen) produced in the DMSO lysate of the citrus peel extracts was calculated. The amount of collagen produced compared to the control group (DMSO) was calculated as collagen production rate (%), and the average value was calculated after the experiment was performed three times (Table 14).
# In order to identify the cause of the change in collagen synthesis promoting efficacy among the steamed citrus peel extract components, the amount of additional collagen production of hesperidin, a flavonoid glycone, and hesperetin, a flavonoid aglycone, was compared (Table 15).
molecule,measurement,setting,value
"COc1ccc([C@@H]2CC(=O)c3c(O)cc(O)cc3O2)cc1O [Hesperetin, hesperetin]",inhibition at 0.1 ppm,"[1]; Mus musculus, RAW264.7, 0.1 ppm, read-out: NO Production Inhibition Rate",-3%
same,inhibition at 1 ppm,"[1]; Mus musculus, RAW264.7, 1 ppm, read-out: NO Production Inhibition Rate",2.6%
same,inhibition at 10 ppm,"[1]; Mus musculus, RAW264.7, 10 ppm, read-out: NO Production Inhibition Rate",8.1%
same,inhibition at 20 ppm,"[1]; Mus musculus, RAW264.7, 20 ppm, read-out: NO Production Inhibition Rate",35.6%
same,Additional Collagen Production Rate,[2]; 0.1 ppm,17.0%
same,Additional Collagen Production Rate,[2]; 1 ppm,16.8%
"COc1ccc([C@@H]2CC(=O)c3c(O)cc(O[C@@H]4O[C@H](CO[C@@H]5O[C@@H](C)[C@H](O)[C@@H](O)[C@H]5O)[C@@H](O)[C@H](O)[C@H]4O)cc3O2)cc1O [Hesperidin, hesperidin]",NO Production Inhibition Rate,[1]; 0.1 ppm,−5.5%
same,NO Production Inhibition Rate,[1]; 1 ppm,0.6%
same,NO Production Inhibition Rate,[1]; 10 ppm,1.8%
same,NO Production Inhibition Rate,[1]; 20 ppm,2.4%
same,Additional Collagen Production Rate,[2]; 0.1 ppm,−0.2%
same,Additional Collagen Production Rate,[2]; 1 ppm,0.2%
CNC(=N)NCCC[C@H](N)C(=O)O [L-NMMA],NO Production Inhibition Rate,"[1]; positive control, 20 ppm, Table 12",55.1%
same,NO Production Inhibition Rate,"[1]; positive control, Table 13",51.3%
TGF-β: positive control that promotes collagen synthesis,Additional Collagen Production Rate,"[2]; positive control, 5 ppb, Table 14",25.2%
same,Additional Collagen Production Rate,"[2]; positive control, Table 15",23.7%
